In article PMC8397634 (Journal of Natural Medicines, 2021):

Columns and labels:
α4β2 nAChRs [1] = biological target: T1, α4β2 nAChRs (Homo sapiens, UniProt P17787+P43681); test: In vitro nAChR functional assay (automated patch-clamp, CHO cells); type: cell-based
Procedure: Electrophysiological responses were recorded using an automated patch-clamp Patchliner Octo® system (Nanion Technologies, Munich, Germany) equipped with two EPC-10 Quadro patch-clamp amplifiers (HEKA Elektronik, Lambrecht, Germany) as described previously. Chinese hamster ovarian (CHO) cells stably expressing human α4β2 nAChRs (Charles River Laboratories, Wilmington, MA, USA) were used. All experiments were performed at room temperature (24 °C) and repeated at least three times. Data were analyzed using Patchmaster software (HEKA Elektronik). Offline data analysis was performed in Apache OpenOffice™ (v4.1.2; […]). Igor Pro software (v6.2.2.2; WaveMetrics, Lake Oswego, OR, USA) was used to determine EC50 values. […] The average values were then fitted to the Hill equation: I=Baseline+X^∧nH(Imax-Baseline)/X^∧nH+EC50^∧nH, where I is the current response, Baseline is the minimal current response, X is the agonist concentration, nH is the Hill coefficient, Imax is the maximal current, and EC50 is the agonist concentration producing half-maximal activation. […]

muscle-type nAChR = biological target: T2, muscle-type nAChR (Homo sapiens, UniProt P02708+P07510+Q07001); test: Muscle-type nAChR radioligand binding (target profiling); conditions: 10 µM single concentration; effect greater than 50% considered significant
T2 construct: TE671 cells; host or cells: TE671 cells (endogenous)
T2 sequence (P02708 21-457): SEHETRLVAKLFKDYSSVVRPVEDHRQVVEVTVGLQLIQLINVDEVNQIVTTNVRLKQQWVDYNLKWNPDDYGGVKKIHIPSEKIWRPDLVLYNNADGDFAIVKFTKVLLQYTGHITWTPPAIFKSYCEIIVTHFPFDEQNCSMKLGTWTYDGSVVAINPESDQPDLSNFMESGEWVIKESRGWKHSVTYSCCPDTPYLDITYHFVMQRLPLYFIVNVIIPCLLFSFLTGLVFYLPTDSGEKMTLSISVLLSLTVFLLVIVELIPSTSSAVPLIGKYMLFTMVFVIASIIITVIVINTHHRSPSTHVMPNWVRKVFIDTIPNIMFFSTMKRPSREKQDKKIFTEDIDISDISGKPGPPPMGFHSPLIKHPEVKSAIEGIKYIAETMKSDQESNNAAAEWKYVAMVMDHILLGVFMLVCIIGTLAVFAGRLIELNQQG
T2 sequence (Q07001 22-517): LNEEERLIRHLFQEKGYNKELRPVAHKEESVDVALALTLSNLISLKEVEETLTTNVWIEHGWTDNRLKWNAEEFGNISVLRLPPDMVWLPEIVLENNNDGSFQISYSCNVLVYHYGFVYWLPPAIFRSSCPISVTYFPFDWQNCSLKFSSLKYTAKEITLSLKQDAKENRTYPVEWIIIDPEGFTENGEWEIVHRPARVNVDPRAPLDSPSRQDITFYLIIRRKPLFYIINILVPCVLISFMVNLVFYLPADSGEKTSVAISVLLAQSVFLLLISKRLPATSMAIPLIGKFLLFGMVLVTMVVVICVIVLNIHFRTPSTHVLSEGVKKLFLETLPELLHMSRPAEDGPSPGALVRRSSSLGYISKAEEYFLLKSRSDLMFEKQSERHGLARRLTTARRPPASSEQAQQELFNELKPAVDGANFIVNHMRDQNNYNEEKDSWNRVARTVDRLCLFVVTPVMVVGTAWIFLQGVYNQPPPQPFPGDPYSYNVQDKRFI
T2 sequence (P07510 23-517): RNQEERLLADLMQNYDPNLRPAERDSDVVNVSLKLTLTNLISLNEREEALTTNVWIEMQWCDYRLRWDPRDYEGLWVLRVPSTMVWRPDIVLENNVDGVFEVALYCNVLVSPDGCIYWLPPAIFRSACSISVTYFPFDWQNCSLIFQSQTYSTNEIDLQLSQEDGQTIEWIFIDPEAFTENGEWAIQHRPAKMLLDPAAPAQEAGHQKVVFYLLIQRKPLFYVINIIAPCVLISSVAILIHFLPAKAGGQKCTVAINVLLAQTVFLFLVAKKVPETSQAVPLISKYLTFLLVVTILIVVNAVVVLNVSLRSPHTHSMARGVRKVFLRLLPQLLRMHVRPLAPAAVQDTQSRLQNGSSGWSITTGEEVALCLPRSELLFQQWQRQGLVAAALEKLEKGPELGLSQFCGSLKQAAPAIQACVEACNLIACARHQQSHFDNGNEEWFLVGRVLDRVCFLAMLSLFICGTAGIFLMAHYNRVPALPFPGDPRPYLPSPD
Procedure: (§1) All binding and functional assays for molecular target characterization were conducted by Eurofins Cerep SA (Celle-Lévescault, France) and Eurofins Panlabs Discovery Services Taiwan, Ltd. (New Taipei City, Taiwan) using their standard in vitro binding and functional assays (Online Source 2). The radioligand displacement binding assays employed the gold-standard filtration method using membrane preparations from stable cell lines expressing human or rodent target proteins to determine the interaction of the compounds with specific receptors, channels, and transporters. For this purpose, the competitive binding of test compounds against a [^125I]-, [^3H]-, or [^35S]-labeled agonist and/or antagonist was determined. The specific list of radiolabeled ligands and experimental conditions are summarized in Online Source 2. A single concentration of each compound (10 µM in 0.1% DMSO) was used for the screen. […] Negative values were considered to be an artifact arising from, for example, compounds interfering with the assay readout.
(§2) Assay Source Ligand Conc. Kd Non Specific Incubation Detection Bibl.

α7 nAChR = conditions: ref 2 (Alijevic, et al.); cited from earlier work
[2] = Brain bioavailability assay in zebrafish (UPLC-HRMS of brain homogenate); type: in vivo, Danio rerio; conditions: both sexes, zebrafish (Danio rerio), in vivo, 1 mg/L; zebrafish brain after 20-min exposure; linear relationship assumed; mean ± SEM; read-out: Relative brain level per 1 mg/L compound
Procedure: Four fish (2 males and 2 females) per compound were used to determine the brain bioavailability of the compounds. Immediately after the 20-min compound treatment, the zebrafish were rinsed briefly to remove excessive compound on their body and terminated with 250 mg/L tricaine (CAS No. 886-86-2; Sigma). The fish were decapitated at the level of the gills using a surgical knife. The head was turned dorsal side down, and soft tissue was removed from the ventral side of the skull until the base of the skull was exposed. The skull was broken open and the bone from the ventral side of the brain was removed. The brain was then placed in a microcentrifuge tube, weighed, snap-frozen in liquid nitrogen, and stored at – 80 °C until the analysis.
Briefly, on the day of analysis, the brain samples were defrosted, resuspended in a methanol solution (2:1 [v/v] methanol:MilliQ water), and homogenized with vigorous agitation and ultrasonication (5 min each). The homogenate was centrifuged at 15,000 × rpm for 10 min, and the supernatant was analyzed using a UPLC-Q Exactive Orbitrap-HRMS system (Thermo Fisher Scientific™, Bremen, Germany). Chromatographic separation was achieved on a Synergi™ 4-µm Hydro-RP 80 Å, L.C. Column (250 × 4.6 mm; Phenomenex Inc., Torrance, CA, USA) with 0.1% formic acid in water (mobile phase A) and 0.1% formic acid in acetonitrile (mobile phase B). A gradient method at a 500 µL/min flow rate was applied as follows: (1) 5% B for 1 min, and (2) increase to 95% B over 7 min and hold for 2 min. The injection volume was 5 μL. The mass spectrometer was operated in electrospray positive mode (ESI, Thermo Fisher Scientific), while data acquisition was performed using the parallel reaction monitoring (PRM) and full scan modes. The source settings were set as follows: sheath gas flow rate = 60 psi; aux gas flow rate = 20 arbitrary units; spray voltage = 3.5 kV; capillary temperature = 280 °C; and sweep gas flow rate = 1. The full scan mode parameters were set as follows: resolution = 35,000 FWHM at 200 m/z; AGC target = 1E6; maximum injection time = 110 ms; and scan range = 100–350 m/z. The chromatographic and Orbitrap MS parameters for PRM analysis were the same as those in the full scan mode, except for: AGC target = 2E5; maximum IT = 60 ms; and resolution = 17,500 FWHM at 200 m/z. The XCalibur™ v4.0.27.19 software (Thermo Fisher Scientific) and TraceFinder™ v4.1 Forensic (Thermo Fisher Scientific, San José, CA, USA) were used for system control and data processing, respectively. The Q Exactive 2.8 SP 1 software (Thermo Fisher Scientific) was used to control the mass spectrometer.

[3] = tested on: zebrafish (Danio rerio; strain AB); conditions: in vivo
Procedure: The NTT conditions closely matched the most commonly used conditions described by. In brief, adult male and female wild-type zebrafish were treated with the compounds for 20 min in a final volume of 50 mL in a 250-mL treatment beaker, one fish at a time. The fish were briefly rinsed in fresh system water, and then immediately transferred to a trapezoidal tank (14.6-cm height × 5.5-cm width × 27.9-cm top length and × 23.6-cm bottom length) filled with 1.5 L system water. The behavior of the fish was monitored for the next 5 min using the Noldus EthoVision XT system (Wageningen, Netherlands), with the camera placed approximately 1 m from the test tank. The tanks were uniformly illuminated from above at approximately 200 lx, reported to be the optimal illumination condition for NTT [23]. Background noise was kept at a minimum during the test. All experimental parameters were monitored closely and kept as consistent as possible throughout the study. The part of the tank filled with water (11.5-cm height) was virtually divided into top, center, and bottom of equal heights (approximately 3.8 cm per segment) for the analyses. The average time spent at the top and bottom portions of the tank was analyzed to determine the anxiety-like behavior of fish. The average total distance traveled and freezing time (as defined by a complete cessation of movement except for gills and eyes) were calculated to determine the effects of the compounds on the general behavior of fish. The analyses were conducted for 1-min time bins. To account for any day-to-day variability in fish behavior, fish treated with vehicle were tested on the same day as the compounds. […] A minimum of 12 fish (6 females and 6 males) per condition were used for the study. The actual sample size per condition is indicated in Online Resource 1. […] The experimenters were blind to the test conditions. The NTT was validated with buspirone, a clinical anxiolytic drug, as previously described.
If not, the concentration was reduced until no obvious signs of tolerability problems were observed. […] The concentrations were calculated based on the free base molecular weight.
Two-way repeated measures analysis of variance (ANOVA) with Dunnett post hoc was used for the 1-min binned analysis of the zebrafish NTT data. Treatment was one factor, and time was the second factor. […] Thus, male and female datasets were combined for the final analyses. […] The EC50 values were determined by applying the nonlinear regression analysis. All analyses were conducted using GraphPad Prism v8.2.1 (GraphPad Software, San Diego, CA, USA).

α4β2 nAChRs [4] = biological target: T1, α4β2 nAChRs; test: In vitro α4β2 nAChR radioligand displacement binding assay; parameters: host or cells: SH-SY5Y cells (human recombinant), membrane preparation; conditions: 10 µM single concentration; effect greater than 50% considered significant
Procedure: as §1, §2

[5] = tested on: other molecular targets (175 in vitro binding and enzymatic assays); test: In vitro molecular target profiling (175 binding and enzymatic assays); conditions: 10 µM single concentration; 175 assays; effect greater than 50% considered significant
Procedure: as §1
3.1. Experimental Conditions
In Vitro Pharmacology: Binding Assays
as §2

T1 sequence (P43681 29-627 limits assumed): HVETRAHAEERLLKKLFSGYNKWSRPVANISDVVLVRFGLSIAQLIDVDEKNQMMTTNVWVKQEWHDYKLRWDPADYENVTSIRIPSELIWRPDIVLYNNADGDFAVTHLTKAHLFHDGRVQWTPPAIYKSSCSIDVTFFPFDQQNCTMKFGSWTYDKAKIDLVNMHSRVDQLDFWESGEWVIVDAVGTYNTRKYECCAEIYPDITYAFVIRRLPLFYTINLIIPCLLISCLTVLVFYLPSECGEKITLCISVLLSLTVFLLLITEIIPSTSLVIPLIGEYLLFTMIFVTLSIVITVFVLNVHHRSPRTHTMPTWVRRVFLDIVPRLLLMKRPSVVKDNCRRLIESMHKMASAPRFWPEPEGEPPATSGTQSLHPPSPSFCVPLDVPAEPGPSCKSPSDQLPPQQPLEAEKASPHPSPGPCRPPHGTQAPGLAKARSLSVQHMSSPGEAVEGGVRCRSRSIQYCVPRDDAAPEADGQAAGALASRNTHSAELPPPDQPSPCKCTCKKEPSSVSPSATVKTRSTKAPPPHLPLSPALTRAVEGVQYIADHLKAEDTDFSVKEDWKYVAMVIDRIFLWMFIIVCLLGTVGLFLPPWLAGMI
T1 sequence (P17787 26-502): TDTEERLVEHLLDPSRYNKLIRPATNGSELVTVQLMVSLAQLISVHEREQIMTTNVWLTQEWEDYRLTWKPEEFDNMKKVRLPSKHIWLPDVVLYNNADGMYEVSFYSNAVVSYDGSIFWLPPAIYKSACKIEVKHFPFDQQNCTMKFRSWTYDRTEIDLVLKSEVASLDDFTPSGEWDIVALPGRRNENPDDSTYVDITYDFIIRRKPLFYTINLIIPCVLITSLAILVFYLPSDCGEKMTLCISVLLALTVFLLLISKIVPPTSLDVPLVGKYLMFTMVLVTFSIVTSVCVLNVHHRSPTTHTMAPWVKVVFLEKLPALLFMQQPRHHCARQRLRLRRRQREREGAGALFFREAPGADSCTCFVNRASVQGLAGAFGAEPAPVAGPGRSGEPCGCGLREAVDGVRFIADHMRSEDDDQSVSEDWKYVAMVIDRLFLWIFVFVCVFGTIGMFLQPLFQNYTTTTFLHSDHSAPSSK

For `CN1CCC[C@H]1c1cccnc1` [Nicotine, (–)-nicotine, reference compound], which “% activation of α4β2 nAChR (normalized to nicotine)” value (α4β2 nAChRs [1]) is on record?
The value was 100%.

And the “Binding to muscle-type nAChR in target profiling” value (muscle-type nAChR)?
Its value is “specific binding”.

And the “α7 nAChR agonist activity” value (α7 nAChR)?
Its value is “weak α7 nAChR agonist”.

What about the concentration at 20 min [2] of the same compound?
Its concentration at 20 min is 700 ± 140 ng/g.

What about the “Concentration effective in reducing anxiety-like behavior in NTT” value [3] of the same compound?
Its value is 0.3 mg/L.

What about the “Binding to α4β2 nAChR in target profiling” value (α4β2 nAChRs [4]) of the same compound?
The value was “specific binding”.

What about the “Binding to or regulation of other molecular targets” value [5] of the same compound?
Its value is “did not bind or regulate the activities of other molecular targets”.
